Measured values: patent US8404680B2, “N-[3-(5-amino-3,3a,7,7a-tetrahydro-1H-2,4-dioxa-6-aza-inden-7-yl)-phenyl]-amides as BACE1 and/or BACE2 inhibitors” (Hoffmann-La Roche Inc., priority 2011, dated 2013)
pIC50: −log10 of the molar value.

Legend:
[1] = biological target: T1, BACE2 (Rattus norvegicus, UniProt Q6IE75); test: Assay for BACE inhibition by measuring cellular TMEM27 cleavage; assay type: cell-based; conditions: INS-TMEM27 (INS1e-derived rat cell line, inducible hTMEM27); shed TMEM27 in medium by ELISA
T1 construct: endogenous cellular BACE2 in the Ins1e rat cell line; endogenous in cells; host or cells: INS-TMEM27 (INS1e-derived rat cell line, TetOn-inducible full-length hTMEM27)
T1 sequence (Q6IE75 63-514): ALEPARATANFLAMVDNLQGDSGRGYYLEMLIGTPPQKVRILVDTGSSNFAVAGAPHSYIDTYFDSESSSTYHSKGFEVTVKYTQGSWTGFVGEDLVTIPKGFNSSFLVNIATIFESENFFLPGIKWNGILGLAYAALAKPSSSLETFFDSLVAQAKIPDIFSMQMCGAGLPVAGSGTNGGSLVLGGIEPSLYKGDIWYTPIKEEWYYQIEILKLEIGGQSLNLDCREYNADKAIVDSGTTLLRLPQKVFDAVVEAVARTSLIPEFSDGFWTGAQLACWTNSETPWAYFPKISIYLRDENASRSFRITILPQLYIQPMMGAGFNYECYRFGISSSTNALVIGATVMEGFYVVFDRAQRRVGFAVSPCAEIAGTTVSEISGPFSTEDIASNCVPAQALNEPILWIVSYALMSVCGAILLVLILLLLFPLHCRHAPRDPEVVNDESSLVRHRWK
From the text: Assay for BACE Inhibition by Measuring Cellular TMEM27 Cleavage:
The assay uses the principle of inhibition of human TMEM27 cleavage by endogenous cellular BACE2 in the Ins1e rat cell line and shedding from the cell surface into the culture medium, followed by detection in an ELISA assay Inhibition of BACE2 prevents the cleavage and shedding in a dose-dependent manner.
The stable cell line “INS-TMEM27” represents an INS1e-derived cell line with inducible expression (using the TetOn system) of full-length hTMEM27 in a doxycycline-dependent manner. The cells are cultured throughout the experiment in RPMI1640+ Glutamax (Invitrogen) Penicillin/Streptomycin, 10% Fetal bovine serum, […], […], 100 micrograms/ml G418 and 100 microgram/ml hygromycin and are grown inadherent culture at 37° C. in a standard CO2 cell culture incubator.
INS-TMEM27 cells are seeded in 96-well plates. After 2 days in culture, BACE2 inhibitor is added in a range of concentrations as required by the assay and after a further two hours, doxycycline is added to a final concentration of 500 ng/ml. The cells are incubated for a further 46 hours and the supernatant harvested for detection of shed TMEM27.
An ELISA assay (using a pair of mouse anti-human-TMEM27 antibodies, raised against the extracellular domain of TMEM27) is used for detection of TMEM27 in the culture medium. An EC50 for BACE2 inhibition is calculated using the ELISA readout for each inhibitor concentration with standard curve-fitting software such as XLFit for the Excel spreadsheet program.

[2] = biological target: T2, BACE1 (Homo sapiens, UniProt P56817); test: Cellular Aβ-lowering assay; assay type: cell-based; conditions: human HEK293 cells stably expressing human APP wt (APP695); Aβ40 in supernatant by ELISA after 18-20 hrs
T2 construct: Human HEK293 cells which are stably transfected with a vector expressing a cDNA of the human APP wt gene (APP695); endogenous in cells; host or cells: HEK293 (human), stably transfected with human APP695 wt
T2 sequence (P56817 46-501): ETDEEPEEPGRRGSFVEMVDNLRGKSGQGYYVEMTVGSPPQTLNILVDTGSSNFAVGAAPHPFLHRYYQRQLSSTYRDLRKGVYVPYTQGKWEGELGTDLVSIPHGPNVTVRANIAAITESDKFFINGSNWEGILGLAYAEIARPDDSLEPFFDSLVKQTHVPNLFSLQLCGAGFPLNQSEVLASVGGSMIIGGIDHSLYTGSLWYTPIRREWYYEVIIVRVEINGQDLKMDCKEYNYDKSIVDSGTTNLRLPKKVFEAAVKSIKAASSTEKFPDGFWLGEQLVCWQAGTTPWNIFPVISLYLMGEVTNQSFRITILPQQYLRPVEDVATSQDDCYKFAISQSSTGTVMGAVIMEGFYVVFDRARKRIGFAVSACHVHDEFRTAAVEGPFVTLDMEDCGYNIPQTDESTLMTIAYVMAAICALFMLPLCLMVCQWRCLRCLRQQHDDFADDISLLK
Description: Cellular Aβ-Lowering Assay:
Human HEK293 cells which are stably transfected with a vector expressing a cDNA of the human APP wt gene (APP695) were used to assess the potency of the compounds in a cellular assay. The cells were seeded in 96-well microtiter plates in cell culture medium (Iscove, plus 10% (v/v) fetal bovine serum, glutamine, penicillin/streptomycin) to about 80% confluence and the compounds were added at a 10× concentration in 1/10 volume of medium without FCS containing 8% DMSO (final concentration of DMSO was kept at 0.8% v/v). After 18-20 hrs incubation at 37° C. and 5% CO2 in a humidified incubator the culture supernatant was harvested for the determination of Aβ40 concentrations. 96well ELISA plates (e.g., Nunc MaxiSorb) were coated with monoclonal antibody which specifically recognize the C-terminal end of Aβ40 (Brockhaus et al., NeuroReport 9, 1481-1486; 1998). After blocking of non-specific binding sites with e.g. 1% BSA and washing, the culture supernatants were added in suitable dilutions together with a horseradish peroxidase-coupled Aβ detection antibody (e.g., antibody 4G8, Senetek, Md. Heights, Mo.) and incubated for 5 to 7 hrs. Subsequently the wells of the microtiter plate were washed extensively with Tris-buffered saline containing 0.05% Tween 20 and the assay was developed with tetramethylbenzidine/H2O2 in citric acid buffer. After stopping the reaction with one volume 1 NH2SO4 the reaction was measured in an ELISA reader at 450 nm wavelength. The concentrations of Aβ in the culture supernatants were calculated from a standard curve obtained with known amounts of pure Aβ peptide.

C[C@]1(c2cc(NC(=O)c3ccc(OCC(F)(F)F)cn3)ccc2F)N=C(N)O[C@@H]2COC[C@@H]21 [Example 6, 5-(2,2,2-Trifluoro-ethoxy)-pyridine-2-carboxylic acid [3-((3aS,7S,7aS)-5-amino-7-methyl-3,3a,7,7a-tetrahydro-4H-2,4-dioxa-6-aza-inden-7-yl)-4-fluoro-phenyl]-amide]
pIC50 [1]: 6.25 | pIC50 [2]: 8.22

C[C@]1(c2cc(NC(=O)c3cnc(OCC(F)(F)F)cn3)ccc2F)N=C(N)O[C@@H]2COC[C@@H]21 [Example 8, 5-(2,2,2-Trifluoro-ethoxy)-pyrazine-2-carboxylic acid [3-((3aS,7S,7aS)-5-amino-7-methyl-3,3a,7,7a-tetrahydro-1H-2,4-dioxa-6-aza-inden-7-yl)-4-fluoro-phenyl]-amide]
pIC50 [1]: 6.68 | pIC50 [2]: 8.74
